Consider one compound from US20050154037A1, “Methods of using zonisamide as an adjunctive therapy for partial seizures” (Eisai Co., Ltd., priority 2004, published 2005).

Details of data set [1]: species or system patients. The following applies: human, in vivo. The source says: The pharmacovigilance data that were collected, reviewed and analyzed provided the following information in respect of the incidence of NMS. To date, a total of 3 cases (two adult and one pediatric) fulfill the criteria of potential neuroleptic malignant syndrome. These cases were reviewed in detail for evaluation of possible safety signals. They were all deemed serious, and in all cases, the patients recovered with appropriate treatment.
Cases ZON1000813 and ZON1000929 are adult cases from Japan. In both cases the patients carried a diagnosis of Parkinson's disease (PD) and were enrolled in a double blind, placebo controlled […] study of zonisamide as a potential treatment for PD (Protocol AD81 ON-202-1). […]
Estimates of exposure, based upon retail and mail order prescriptions, indicate that the number of unique patients taking zonisamide capsules in the U.S. is about 37,276 (total prescriptions per year/average number of prescriptions per patient per year less a calculated percentage decrease based on estimated annual dropouts) in the time between approval in 2000 and December 2002. […] Similarly, the incidences of NMS estimated herein are unlikely to be higher than calculated. Based on the exposure data and number of NMS cases, the incidence of NMS in the U.S. and Japan is calculated to be about 1:37,276 unique patients and 1:592,588 unique patients, respectively.

Data set [2] can be described thus: NMS case reports: onset of symptoms after cessation of zonisamide therapy. To be noted: person with Parkinson's Disease. The format is in vivo, patients. The text has this: Cases ZON1000813 and ZON1000929 are adult cases from Japan. In both cases the patients carried a diagnosis of Parkinson's disease (PD) and were enrolled in a double blind, placebo controlled […] study of zonisamide as a potential treatment for PD (Protocol AD81 ON-202-1). In both cases the development of NMS appeared after the withdrawal of zonisamide (from 2 days to 14 days, respectively). In the former case, the study blind was broken, and the patient was documented to be on study medication (zonisamide), while in the second case, the blind was not broken. Case ZON1000926 is a spontaneous pediatric case from the US. In all of these cases there were weak or no confounding factors present.
A person carried a diagnosis of Parkinson's Disease (PD). The patient was enrolled in a double-blind, placebo controlled Phase II study designed to assess the potential utility of zonisamide in the treatment of PD. The patient's symptoms of NMS appeared 2 days after cessation of zonisamide therapy. Patients with PD are known to be at a rare, but increased risk for NMS. But NMS can occur spontaneously. See Ueda, et al., Neurology, Vol. 52, pp. 777-781, 1999.
A person carried a diagnosis of Parkinson's Disease (PD). The patient was enrolled in a double-blind, placebo controlled Phase II study designed to assess the potential utility of zonisamide in the treatment of PD. […]

In a further data set the test system is sodium channels. To be noted: in vitro; cited from earlier work.
Data set [3] deals with voltage-dependent, transient inward currents (T-type Ca^2+ currents). To be noted: in vitro; cited from earlier work.
The subject of data set [4] is GABA/benzodiazepine receptor ionophore complex. To be noted: cited from earlier work.
Data set [5] relates to cultured mouse spinal cord neurons. To be noted: 10-30 μg/mL, cited from earlier work.
The next data set has as its system rat hippocampal slices. The following applies: 10-30 μg/mL; cited from earlier work.
In data set [6] the test system is dopaminergic and serotonergic neurotransmission. The following applies: in vivo microdialysis; cited from earlier work.
The subject of the next data set is hepatic enzyme. To be noted: cited from earlier work.
A further data set has as its system carbonic anhydrase. The following applies: relative to acetazolamide; called weak; cited from earlier work.

Turning to `NS(=O)(=O)Cc1noc2ccccc12` [zonisamide, 1,2-benzisoxazole-3-methanesulfonamide], in data set [1], the “cases that fulfill the criteria of potential neuroleptic malignant syndrome” value is recorded as 3 cases and the “incidence of NMS” value is “about 1:37,276 unique patients”. The “appearance of NMS symptoms after cessation of zonisamide therapy” value in data set [2] (Phase II study (Example 1)) was 2 days. The “appearance of NMS symptoms after cessation of study medication” value in data set [2] (Phase II study, blind not broken (Example 2)) was 14 days. Further, in the data set with sodium channels, the “effect on sodium channels” value is listed as “blocks sodium channels”. Moreover, the “effect on voltage-dependent, transient inward currents (T-type Ca2+ currents)” value in data set [3] is given as “reduces”. In data set [4], the “changes in chloride flux” value was “does not produce changes in chloride flux”. Moreover, the “binding to the GABA/benzodiazepine receptor ionophore complex” value in [4] (in an allosteric fashion) is “binds”. In addition, the synaptically-driven electrical activity in [5] is given as “suppresses”. In addition, the “postsynaptic GABA or glutamate responses” value in [5] (cultured mouse spinal cord neurons) was “without affecting”. Moreover, the “neuronal or glial uptake of [3H]-GABA” value in the data set with rat hippocampal slices is on record as “without affecting”. In data set [6], the “dopaminergic and serotonergic neurotransmission” value is “facilitates”. Also, the hepatic enzyme induction entry in the data set on hepatic enzyme is on record as “not known to be a hepatic enzyme inducer”. In the data set on carbonic anhydrase, the “carbonic anhydrase inhibition compared to acetazolamide” value is reported as 1/50.
